One experiment concerns the target T1, Pin1 (Homo sapiens, UniProt Q13526).
T1 construct: purchased Anaspec
Description: Evaluation of Pin1 enzyme inhibitory activity (Sensolyte Green Pin1 assay kit). Format: biochemical. In outline:
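Compounds were tested at four working concentrations (100, 10, 1, 0.1 μM), mixed with Pin1 (50 μg/ml stock dilution), developer and substrate (1 μM as prepared). Fluorescence at 490/520 nm was recorded after 2 h in the dark at room temperature. Results were grouped into grades A–D by inhibiting concentration.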

The test system of experiment [1] is MDA-MB 231 triple negative breast cancer cell line. Description: MDA-MB 231 protein expression inhibition (Western blotting, cycline D1 vs Vinculin). It is filed as cell-based. The following applies: Homo sapiens, compound 10 μM, 72 hours, cycline D1 Western blot, read-out: MBA-MB-231 (amount of the protein compared to the DMSO-treated control group). As for the experimental part: In order to confirm the ability of the compound represented by formula 1 according to the present invention to inhibit the protein expression of MDA-MB 231 triple negative breast cancer cell line, the following experiment was performed, and the results are shown in Table 3 below.
MDA-MB-231 cells were cultured in a 5% CO2 incubator at 37° C. using RPMI medium supplemented with 10% FBS and 1% penicillin/streptomycin.
The cells were washed with PBS once a day, and then replaced with a new medium. The cells grown at the density of at least 90% 1 day before the experiment were detached using trypsin/EDTA, and then plated at the density of 100,000 per well in a 6-well plate.
On the next day of culture, the compound prepared in each example was treated at a concentration of 10 μM, and DMSO was treated at a concentration of 0.1% of the total as the control, followed by incubation for 72 hours. After 72 hours, the cells were washed twice with PBS, collected by scraping, and centrifuged at 13,000 rpm for 3 minutes to remove all the supernatant and only cells were taken.
RIPA buffer (containing 1× protease inhibitor and phosphatase inhibitor) was added to the prepared cells (80 μl/well), and the plate was shaken once every 5 minutes to disrupt the cells for a total of 15 minutes. The disrupted cells were centrifuged at 13,000 rpm for 15 minutes to collect only the supernatant protein. The obtained protein was quantified using a BCA protein quantification kit (Pierece, MA, USA), and a total of 10 μg of the protein was used for Western blotting.
The protein sample was isolated by 10% SDS-PAGE, and transferred to a PVDF membrane. Anti-human cycline D1 antibody (Cell signal) and anti-Vinculin antibody were bound to the protein sample, and the expression of the protein was measured by using an ECL reagent and LAS4000 equipment. The measurement results were quantified and generalized using ImageJ. The results are shown in Table 3 below by dividing the grades A to D according to the amount of the protein compared to the DMSO-treated control group.

For experiment [2], the system named is A2780 cells (ovarian cancer cells). Description: Cell viability of A2780 cells (Cell-titer Glo). It is filed as cell-based. Particulars: Homo sapiens. In short, it runs like this:
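A2780 ovarian cancer cells seeded at 3000 viable cells/well in RPMI-1640 with 10% FBS, dosed the next day and grown 3 days. Viability measured by Cell-titer Glo luminescence.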

The test system of experiment [3] is A2780-SP cells (ovarian cancer stem cells). Description: Sphere cell viability of A2780-SP cells (Cell-titer Glo). Format: cell-based. In outline: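 A2780-SP ovarian cancer stem cells grown as spheres in ultra-low-attachment wells (1,500 cells/well) in neurobasal stem-cell medium with bFGF, EGF, B27. Compound added the day after plating, re-dosed on day 4, 8-day culture total; viability by CellTiter-Glo luminescence.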

Where [4] appears, read: concentration at which the Pin1 enzyme activity is inhibited, 2 hours at room temperature, fluorescence 490 nm/520 nm, read-out: Pin 1 inhibition.
Setting [5] is: Table 2, read-out: concentration at which Pin1 inhibitory activity was exhibited.
The mark [6] stands for this setting: 72 h, cell viability, culture for 3 days, read-out: A2780.
[7] abbreviates: 192 h, sphere cell viability, culture for 8 days, read-out: A2780-SP.
The mark [8] stands for this setting: Table 5, read-out: the concentration (second list of b710, cell line not named; matches A2780-SP column).
The mark [9] stands for this setting: A2780, Table 5, read-out: A2780 cell concentration.

Where two headings read alike, the source gives them in different places.

T1 sequence (Q13526 whole entry): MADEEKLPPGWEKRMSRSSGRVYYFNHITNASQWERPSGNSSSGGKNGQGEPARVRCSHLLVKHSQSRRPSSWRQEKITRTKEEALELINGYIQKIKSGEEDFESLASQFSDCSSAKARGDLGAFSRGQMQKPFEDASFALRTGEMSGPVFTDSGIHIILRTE

`CN(C)CCCOc1ccc(S(=O)(=O)NCCCc2c[nH]c3ccccc23)cc1` [Example 22, N-(3-(1H-indol-3-yl)propyl)-4-(3-(dimethylamino)propoxy)benzenesulfonamide]: the IC50 on Pin1 (setting [4]) is 10000 to 100000 nM. In addition, in experiment [1], the activity at 10 µM lay within 70 to 100%.

For the compound `CN1CCN(C[C@@H](O)COc2ccc(S(=O)(=O)NCCCc3c[nH]c4ccc(Cl)cc34)cc2)CC1` [Example 171, (R)—N-(3-(5-chloro-1H-indole-3-yl)propyl)-4-(2-hydroxy-3-(4-methylpiperazine-1-yl)propoxy)benzenesulfonamide], the IC50 on Pin1 (setting [5]) was less than 1000 nM; on Pin1 (setting [4]), less than 1000 nM; in experiment [2] (setting [6]), more than 10000 nM; in experiment [3] (setting [7]), less than 1000 nM; in experiment [3] (setting [8]), less than 1000 nM.

In the case of `O=S(=O)(NCCCc1c[nH]c2ccc(Cl)cc12)c1ccc(OC[C@H](O)CN2CCNCC2)cc1` [Example 172, (R)—N-(3-(5-chloro-1H-indol-3-yl)propyl)-4-(2-hydroxy-3-(piperazin-1-yl)propoxy)benzenesulfonamide], the IC50 on Pin1 (setting [5]) was less than 1000 nM; at Pin1 (setting [4]), less than 1000 nM; in experiment [2] (setting [6]) it was more than 10000 nM; in experiment [3] (setting [7]) it was less than 1000 nM; in experiment [3] (setting [8]), less than 1000 nM.

For `CN1CCN(C[C@H](O)COc2ccc(S(=O)(=O)NCCCc3c[nH]c4ccc(Cl)cc34)cc2)CC1` [Example 173, (S)—N-(3-(5-chloro-1H-indol-3-yl)propyl)-4-(2-hydroxy-3-(4-methylpiperazin-1-yl)propoxy)benzenesulfonamide], the IC50 at Pin1 (setting [5]) was less than 1000 nM; on Pin1 (setting [4]) it was less than 1000 nM; in experiment [2] (setting [6]) it was 1000 to 10000 nM; in experiment [2] (setting [9]), less than 10000 nM; in experiment [3] (setting [7]), less than 1000 nM; in experiment [3] (setting [8]) it was less than 1000 nM.

Take `O=S(=O)(NCCCc1c[nH]c2ccc(Cl)cc12)c1ccc(OC[C@@H](O)CN2CCNCC2)cc1` [Example 174, (S)—N-(3-(5-chloro-1H-indol-3-yl)propyl)-4-(2-hydroxy-3-(piperazin-1-yl)propoxy)benzenesulfonamide]: the IC50 is less than 1000 nM at Pin1 (setting [5]); less than 1000 nM at Pin1 (setting [4]); more than 10000 nM in experiment [2] (setting [6]); less than 1000 nM in experiment [3] (setting [7]); less than 1000 nM in experiment [3] (setting [8]).

For the compound `Cc1ncn(CCCOc2ccc(S(=O)(=O)NCCCc3c[nH]c4ccc(Cl)cc34)cc2)c1C` [Example 175, N-(3-(5-chloro-1H-indol-3-yl)propyl)-4-(3-(4,5-dimethyl-1H-imidazol-1-yl)propoxy)benzenesulfonamide], the IC50 was less than 1000 nM on Pin1 (setting [5]); less than 1000 nM on Pin1 (setting [4]); 1000 to 10000 nM in experiment [2] (setting [6]); less than 10000 nM in experiment [2] (setting [9]); less than 1000 nM in experiment [3] (setting [7]); less than 1000 nM in experiment [3] (setting [8]).

For `Cc1nc(C)n(CCCOc2ccc(S(=O)(=O)NCCCc3c[nH]c4ccc(Cl)cc34)cc2)c1C` [Example 176, N-(3-(5-chloro-1H-indol-3-yl)propyl)-4-(3-(2,4,5-trimethyl-1H-imidazol-1-yl)propoxy)benzenesulfonamide], the IC50 on Pin1 (setting [5]) was less than 1000 nM; at Pin1 (setting [4]), less than 1000 nM; in experiment [2] (setting [6]), 1000 to 10000 nM; in experiment [2] (setting [9]), less than 10000 nM; in experiment [3] (setting [7]), less than 1000 nM; in experiment [3] (setting [8]) it was less than 1000 nM.

As to `CN1CCN(CCCOc2ccc(S(=O)(=O)NCC3CCc4[nH]c5ccc(Cl)cc5c4C3)cc2)CC1` (centres unmarked) [Example 177, N-((6-chloro-2,3,4,9-tetrahydro-1H-carbazole-3-yl)methyl) 4-(3-(4-methylpiperazine-1-yl)propoxy)benzenesulfonamide], the IC50 at Pin1 (setting [5]) is less than 1000 nM; on Pin1 (setting [4]), less than 1000 nM; in experiment [2] (setting [6]), 1000 to 10000 nM; in experiment [2] (setting [9]) it was less than 10000 nM; in experiment [3] (setting [7]), less than 1000 nM; in experiment [3] (setting [8]), less than 1000 nM.

`O=S(=O)(NCC1CCc2[nH]c3ccc(Cl)cc3c2C1)c1ccc(OCCCN2CCNCC2)cc1` (centres unmarked) [Example 178, N-((6-chloro-2,3,4,9-tetrahydro-1H-carbazol-3-yl)methyl)-4-(3-(piperazin-1-yl)propoxy)benzenesulfonamide]: the IC50 was less than 1000 nM at Pin1 (setting [5]); less than 1000 nM on Pin1 (setting [4]); 1000 to 10000 nM in experiment [2] (setting [6]); less than 10000 nM in experiment [2] (setting [9]); less than 1000 nM in experiment [3] (setting [7]); less than 1000 nM in experiment [3] (setting [8]).

Turning to `O=S(=O)(NCCCc1c[nH]c2cc(Cl)c(Cl)cc12)c1ccc(OCCCN2CCNCC2)cc1` [Example 183, N-(3-(5,6-dichloro-1H-indol-3-yl)propyl)-4-(3-(piperazin-1-yl)propoxy)benzenesulfonamide], the IC50 is less than 1000 nM at Pin1 (setting [5]); less than 1000 nM at Pin1 (setting [4]); more than 10000 nM in experiment [2] (setting [6]); less than 1000 nM in experiment [3] (setting [7]); less than 1000 nM in experiment [3] (setting [8]).

Consider `CN1CCN(CCCOc2ccc(S(=O)(=O)NCCCc3c[nH]c4cc(Cl)c(Cl)cc34)cc2)CC1` [Example 184, N-(3-(5,6-dichloro-1H-indol-3-yl)propyl)-4-(3-(4-methylpiperazin-1-yl)propoxy)benzenesulfonamide], for which the IC50 is less than 1000 nM on Pin1 (setting [5]); less than 1000 nM on Pin1 (setting [4]); more than 10000 nM in experiment [2] (setting [6]); less than 1000 nM in experiment [3] (setting [7]); less than 1000 nM in experiment [3] (setting [8]).

As for `O=S(=O)(NCCCc1c[nH]c2ccc(Cl)cc12)c1ccc(CCCOc2ccncc2)cc1` [Example 185, N-(3-(5-chloro-1H-indole-3-yl)propyl)-4-(3-(pyridine-4-yloxy)propyl)benzenesulfonamide], the IC50 was less than 1000 nM at Pin1 (setting [5]), less than 1000 nM at Pin1 (setting [4]), more than 10000 nM in experiment [2] (setting [6]) and more than 10000 nM in experiment [3] (setting [7]).

In the case of `CN1CCN(CCCc2ccc(S(=O)(=O)NCCCc3c[nH]c4ccc(Cl)cc34)cc2)CC1` [Example 186, N-(3-(5-chloro-1H-indol-3-yl)propyl)-4-(3-(4-methylpiperazin-1-yl)propyl)benzenesulfonamide], the IC50 is less than 1000 nM on Pin1 (setting [5]); less than 1000 nM at Pin1 (setting [4]); more than 10000 nM in experiment [2] (setting [6]); less than 1000 nM in experiment [3] (setting [7]); less than 1000 nM in experiment [3] (setting [8]).

With `CN1CCN(CCCOc2ccc(S(=O)(=O)NCC3CCc4[nH]c5ccc(F)cc5c4C3)cc2)CC1` (centres unmarked) [Example 187, N-((6-fluoro-2,3,4,9-tetrahydro-1H-carbazol-3-yl)methyl)-4-(3-(4-methylpiperazin-1-yl)propoxy)benzenesulfonamide], the IC50 on Pin1 (setting [5]) is less than 1000 nM; at Pin1 (setting [4]), less than 1000 nM; in experiment [2] (setting [6]), more than 10000 nM; in experiment [3] (setting [7]), less than 1000 nM; in experiment [3] (setting [8]), less than 1000 nM.

With `O=S(=O)(NCC1CCc2[nH]c3ccc(F)cc3c2C1)c1ccc(OCCCN2CCNCC2)cc1` (centres unmarked) [Example 188, N-((6-fluoro-2,3,4,9-tetrahydro-1H-carbazol-3-yl)methyl)-4-(3-(piperazin-1-yl)propoxy)benzenesulfonamide], the IC50 on Pin1 (setting [5]) was less than 1000 nM; at Pin1 (setting [4]), less than 1000 nM; in experiment [2] (setting [6]), more than 10000 nM; in experiment [3] (setting [7]) it was less than 1000 nM; in experiment [3] (setting [8]) it was less than 1000 nM.

With `CN1CCN(CCCOc2ccc(S(=O)(=O)NCC3CCc4[nH]c5ccccc5c4C3)cc2)CC1` (centres unmarked) [Example 189, 4-(3-(4-methylpiperazin-1-yl)propoxy)-N-((2,3,4,9-tetrahydro-1H-carbazol-3-yl)methyl)benzenesulfonamide], the IC50 was less than 1000 nM on Pin1 (setting [5]); less than 1000 nM at Pin1 (setting [4]); more than 10000 nM in experiment [2] (setting [6]); less than 1000 nM in experiment [3] (setting [7]); less than 1000 nM in experiment [3] (setting [8]).

For the compound `O=S(=O)(NCC1CCc2[nH]c3ccccc3c2C1)c1ccc(OCCCN2CCNCC2)cc1` (centres unmarked) [Example 190, 4-(3-(piperazin-1-yl)propoxy)-N-((2,3,4,9-tetrahydro-1H-carbazol-3-yl)methyl)benzenesulfonamide], the IC50 is less than 1000 nM at Pin1 (setting [5]); less than 1000 nM on Pin1 (setting [4]); more than 10000 nM in experiment [2] (setting [6]); less than 1000 nM in experiment [3] (setting [7]); less than 1000 nM in experiment [3] (setting [8]).
